Laboratory results as given in ChEMBL document CHEMBL2169810, “Carbamoylphosphonates control tumor cell proliferation and dissemination by simultaneously inhibiting carbonic anhydrase IX and matrix metalloproteinase-2. Toward nontoxic chemotherapy targeting tumor microenvironment” (J Med Chem, 2012).

What was measured:
Carbonic anhydrase 2 = Carbonic anhydrase 2 (Homo sapiens, UniProt P00918); experiment: Inhibition of human Carbonic anhydrase 2-mediated CO2 hydration by stopped-flow method
Carbonic anhydrase 12 = Carbonic anhydrase 12 (Homo sapiens, UniProt O43570); experiment: Inhibition of human Carbonic anhydrase 12-mediated CO2 hydration by stopped-flow method
Carbonic anhydrase 12, sequence (O43570 whole entry): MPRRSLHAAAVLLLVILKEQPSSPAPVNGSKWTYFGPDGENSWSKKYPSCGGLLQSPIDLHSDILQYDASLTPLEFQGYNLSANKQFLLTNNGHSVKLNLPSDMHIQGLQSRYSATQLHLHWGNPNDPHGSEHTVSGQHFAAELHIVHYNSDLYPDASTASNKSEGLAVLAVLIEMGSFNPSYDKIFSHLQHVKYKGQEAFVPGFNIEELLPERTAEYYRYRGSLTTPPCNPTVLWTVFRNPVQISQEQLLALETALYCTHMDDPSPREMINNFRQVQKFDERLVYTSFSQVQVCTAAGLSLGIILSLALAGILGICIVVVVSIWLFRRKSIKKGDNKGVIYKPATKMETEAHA

Carbonic anhydrase 1 = Carbonic anhydrase 1 (Homo sapiens, UniProt P00915); experiment: Inhibition of human Carbonic anhydrase 1-mediated CO2 hydration by stopped-flow method
Carbonic anhydrase 1, sequence (P00915 whole entry): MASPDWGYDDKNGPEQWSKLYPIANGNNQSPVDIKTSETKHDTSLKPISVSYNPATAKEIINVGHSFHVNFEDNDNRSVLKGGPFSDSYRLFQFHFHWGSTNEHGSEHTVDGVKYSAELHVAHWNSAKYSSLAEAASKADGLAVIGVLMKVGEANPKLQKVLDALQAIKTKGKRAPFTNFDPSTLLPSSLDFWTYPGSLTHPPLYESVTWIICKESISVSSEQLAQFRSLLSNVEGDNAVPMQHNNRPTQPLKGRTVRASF

Carbonic anhydrase 9 = Carbonic anhydrase 9 (Homo sapiens, UniProt Q16790); experiment: Inhibition of human Carbonic anhydrase 9-mediated CO2 hydration by stopped-flow method
B16-F10 [1] = experiment: Antimetastatic activity against mouse B16F10 cells xenografted in C57BL mouse assessed as decrease in lung metastasis at 50 mg/kg, po administered QD measured after 21 days; assay type: functional; design: scale not given: the % may be the effect or the level left
B16-F10 [2] = experiment: Antimetastatic activity against mouse B16F10 cells xenografted in C57BL mouse assessed as decrease in lung metastasis at 50 mg/kg, ip administered QD measured after 21 days; assay type: functional; design: scale not given: the % may be the effect or the level left; details: route intraperitoneal
[3] = target: T1, 72 kDa type IV collagenase (Homo sapiens, UniProt P08253); experiment: Inhibition of MMP2
T1 sequence (P08253 whole entry): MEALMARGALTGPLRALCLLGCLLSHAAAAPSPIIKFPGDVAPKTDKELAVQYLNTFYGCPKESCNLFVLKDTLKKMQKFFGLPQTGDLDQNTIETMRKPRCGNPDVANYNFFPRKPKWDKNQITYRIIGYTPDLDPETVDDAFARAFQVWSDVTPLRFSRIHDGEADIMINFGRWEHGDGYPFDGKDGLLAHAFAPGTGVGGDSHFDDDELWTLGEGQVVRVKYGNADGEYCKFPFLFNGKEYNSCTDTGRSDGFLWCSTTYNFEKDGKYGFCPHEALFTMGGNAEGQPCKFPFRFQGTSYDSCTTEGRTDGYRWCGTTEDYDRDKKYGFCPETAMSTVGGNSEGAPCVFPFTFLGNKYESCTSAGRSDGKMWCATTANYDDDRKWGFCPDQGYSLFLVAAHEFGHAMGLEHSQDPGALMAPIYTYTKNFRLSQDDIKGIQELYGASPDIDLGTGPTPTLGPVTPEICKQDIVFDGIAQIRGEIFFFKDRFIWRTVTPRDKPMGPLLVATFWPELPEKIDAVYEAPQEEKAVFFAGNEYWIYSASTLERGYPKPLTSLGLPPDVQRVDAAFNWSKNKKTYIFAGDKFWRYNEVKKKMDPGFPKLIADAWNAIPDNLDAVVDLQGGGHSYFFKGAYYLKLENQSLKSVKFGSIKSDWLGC

HeLa [4] = experiment: Cytotoxicity against human HeLa cells assessed as increase in LDH level up to 100 uM after 24 hrs in normoxic condition by spectrophotometric analysis relative to control; assay type: cell-based
HT-1080 [5] = experiment: Cytotoxicity against human HT1080 cells assessed as increase in LDH level at 50 uM after 24 hrs in hypoxic condition by spectrophotometric analysis relative to control; assay type: functional
B16-F10 [6] = experiment: Antimetastatic activity against mouse B16F10 cells xenografted in C57BL mouse assessed as decrease in lung metastasis at 12.5 mg/kg, ip administered QD measured after 21 days; assay type: functional; design: scale not given: the % may be the effect or the level left; details: route intraperitoneal
B16-F10 [7] = experiment: Antimetastatic activity against mouse B16F10 cells xenografted in C57BL mouse assessed as decrease in lung metastasis at 25 mg/kg, ip administered QD measured after 21 days; assay type: functional; design: scale not given: the % may be the effect or the level left; details: route intraperitoneal
HT-1080 [8] = experiment: Cytotoxicity against human HT1080 cells assessed as increase in LDH level at 1 uM after 24 hrs in hypoxic condition by spectrophotometric analysis relative to control; assay type: functional
[9] = target: T1, 72 kDa type IV collagenase; experiment: Inhibition of human recombinant MMP2 measured every 5 mins for 3 hrs
HT-1080 [10] = experiment: Cytotoxicity against human HT1080 cells assessed as increase in LDH level after 24 hrs in hypoxic condition by spectrophotometric analysis relative to control; assay type: functional, cell-based
Hydroxyapatite = experiment: Binding affinity to bone mineral hydroxyapatite at 100 uM after 17 hrs
[11] = Volume of distribution at steady state in Sprague-Dawley rat at 33 mg/kg, iv; assay type: ADME, organism-based; design: dose 33 mg/kg, route intravenous; details: in vivo, read-out: Vdss
HT-1080 [12] = experiment: Cytotoxicity against human HT1080 cells assessed as increase in LDH level at 10 uM after 24 hrs in hypoxic condition by spectrophotometric analysis relative to control; assay type: functional
HeLa [13] = experiment: Cytotoxicity against human HeLa cells assessed as increase in LDH level at 50 uM after 24 hrs in hypoxic condition by spectrophotometric analysis relative to control; assay type: functional
HT-1080 [14] = experiment: Cytotoxicity against human HT1080 cells assessed as increase in LDH level up to 100 uM after 24 hrs in normoxic condition by spectrophotometric analysis relative to control; assay type: cell-based; details: ht-1080, 24 h
[15] = Half life in Sprague-Dawley rat at 33 mg/kg, iv; assay type: ADME, organism-based; design: dose 33 mg/kg, route intravenous; details: in vivo
HeLa [16] = experiment: Cytotoxicity against human HeLa cells assessed as increase in LDH level after 24 hrs in hypoxic condition by spectrophotometric analysis relative to control; assay type: functional, cell-based

SMILES | IC50 (Carbonic anhydrase 2) | IC50 (Carbonic anhydrase 12) | IC50 (Carbonic anhydrase 1) | IC50 (Carbonic anhydrase 9) | other results
C[C@H](NC(=O)P(=O)(O)O)C1CCCCC1 | 9.45 µM | 6.64 µM | 5.31 µM | 6.36 µM | 
O=C(NC1CCCC1)P(=O)(O)O [(CYCLOPENTYLAMINO)CARBONYLPHOSPHONIC ACID] | 7.41 µM | 7.26 µM | 8.79 µM | 8.97 µM | Activity (B16-F10 [1]): 80%; Activity (B16-F10 [2]): 86%
O=C(NCCN1CCCC1)P(=O)(O)O | 9.66 µM | 5.43 µM | 9.43 µM | 8.8 µM | 
O=C(NCCCCNS(=O)(=O)c1ccc(Oc2ccccc2)cc1)P(=O)(O)O | 0.1 µM | 5.6 µM | 0.75 µM | 6.1 µM | 
CC(C)NC(=O)P(=O)(O)O [(ISOPROPYLAMINO)CARBONYLPHOSPHONIC ACID] | 13.9 µM | 7.27 µM | 8.81 µM | 8.3 µM | 
O=C(NCCCCNC(=O)P(=O)(O)O)P(=O)(O)O | 8.82 µM | 6.02 µM | 9.74 µM | 9.1 µM | 
O=C(NCCNC(=O)P(=O)(O)O)c1ccc(Oc2ccccc2)cc1 | 0.61 µM | 8.6 µM | 0.62 µM | 9.9 µM | IC50 [3]: 20 µM
CCOP(=O)(OCC)C(=O)NCCCCNC(=O)P(=O)(OCC)OCC | 9.59 µM | 2.72 µM | 9.7 µM | 9.65 µM | 
O=C(NCCCCCNS(=O)(=O)c1ccc(Oc2ccccc2)cc1)P(=O)(O)O | 0.31 µM | 5.7 µM | 0.52 µM | 6.3 µM | Activity (B16-F10 [1]): 80%; Activity (HeLa [4]): Non-toxic; fold change (FC) (HT-1080 [5]): 2.3; Activity (B16-F10 [6]): 57%; Activity (B16-F10 [7]): 76%; fold change (FC) (HT-1080 [8]): 1; IC50 [9]: 4 µM; Activity (B16-F10 [2]): 90%; Activity (HT-1080 [10]): Dose-dependent effect; Drug absorption (Hydroxyapatite): 44%; Vd [11]: 1.65 L/kg; fold change (FC) (HT-1080 [12]): 1.5; fold change (FC) (HeLa [13]): 1.3; Activity (HT-1080 [14]): Non-toxic; half-life [15]: 9 h; Activity (HeLa [16]): Dose-dependent effect
O=C(NC1CCCCCCC1)P(=O)(O)O [(CYCLOOCTYLAMINO)CARBONYLPHOSPHONIC ACID] | 7.89 µM | 7.99 µM | 8.02 µM | 9.14 µM | 
O=C(NCC1CCCCC1)P(=O)(O)O [CYCLOHEXYLMETHYLCARBAMOYLPHOSPHONIC ACID] | 9.23 µM | 7.44 µM | 7.36 µM | 8.59 µM | 
CCC(CC)NC(=O)P(=O)(O)O | 8.79 µM | 4.65 µM | 6.71 µM | 8.26 µM | 
N[C@@H]1CCCC[C@@H]1NC(=O)P(=O)(O)O | 1.32 µM | 6 µM | 1.6 µM | 8.6 µM | 
O=C(NCCc1ccccc1)P(=O)(O)O [PHENETHYLCARBAMOYLPHOSPHONIC ACID] | 8 µM | 5.44 µM | 7.68 µM | 6.08 µM | 
C[C@@H](NC(=O)P(=O)(O)O)C1CCCCC1 | 8.85 µM | 6.97 µM | 6.78 µM | 8.12 µM | 
O=C(NC1CCCCC1)P(=O)(O)O [(CYCLOHEXYLAMINO)CARBONYLPHOSPHONIC ACID] | 8.81 µM | 5.59 µM | 7.89 µM | 8.89 µM | 
O=C(NCCN1CCCCC1)P(=O)(O)O | 8.6 µM | 7.64 µM | 7.82 µM | 9 µM | 
O=C(NCCNS(=O)(=O)c1ccc(Oc2ccccc2)cc1)P(=O)(O)O | 0.82 µM | 6.9 µM | 0.98 µM | 7 µM | 
O=C(NCCCNS(=O)(=O)c1ccc(Oc2ccccc2)cc1)P(=O)(O)O | 0.58 µM | 6.4 µM | 0.71 µM | 6.8 µM | 
N[C@H]1CCCC[C@@H]1NC(=O)P(=O)(O)O | 8.28 µM | 8.26 µM | 8.24 µM | 7.14 µM | 
O=C(NCCCCCCNS(=O)(=O)c1ccc(Oc2ccccc2)cc1)P(=O)(O)O | 0.1 µM | 6.2 µM | 0.38 µM | 7 µM | Activity (B16-F10 [1]): 50%; Activity (HeLa [4]): Non-toxic; fold change (FC) (HT-1080 [5]): 1.9; Activity (B16-F10 [6]): 82%; Activity (B16-F10 [7]): 90%; fold change (FC) (HT-1080 [8]): 1; IC50 [9]: 4 µM; Activity (HT-1080 [10]): Dose-dependent effect; fold change (FC) (HT-1080 [12]): 1.3; Activity (HT-1080 [14]): Non-toxic; Activity (HeLa [16]): Dose-dependent effect
